Assay [1] concerns the target T1, complement C5a receptor 1 (C5aR1) (Homo sapiens, UniProt P21730).
T1 construct: β-galactosidase fragment (PathHunter enzyme complementation); host or cells: CHO-K1 (PathHunter CHO-K1 C5aR1 β-arrestin cell line)
T1 sequence (P21730 1-350): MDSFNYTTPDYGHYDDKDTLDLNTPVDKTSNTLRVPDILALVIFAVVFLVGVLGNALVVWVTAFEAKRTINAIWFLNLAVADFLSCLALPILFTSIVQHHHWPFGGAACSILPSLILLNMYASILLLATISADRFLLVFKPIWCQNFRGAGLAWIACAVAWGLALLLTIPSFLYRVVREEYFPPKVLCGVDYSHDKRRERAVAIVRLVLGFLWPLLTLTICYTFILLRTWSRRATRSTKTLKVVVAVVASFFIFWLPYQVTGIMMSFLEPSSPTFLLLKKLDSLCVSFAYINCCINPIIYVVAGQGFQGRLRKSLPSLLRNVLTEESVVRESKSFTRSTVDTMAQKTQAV
Description: β-arrestin recruitment via C5aR1 activation in live CHO-K1 cells (PathHunter), agonist mode. The class given is cell-based. In short, it runs like this: (§1)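 Live CHO-K1 cells carry two galactosidase enzyme fragments, one fused to β-arrestin and one to C5aR1, so that β-arrestin recruitment restores enzyme activity. Agonist mode tests compounds alone. Antagonist mode tests them against recombinant hC5a at EC90, and IC50 values are reported in binned ranges.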

For assay [2], the target named is T1, complement C5a receptor 1 (C5aR1). Description: β-arrestin recruitment via C5aR1 activation in live CHO-K1 cells (PathHunter), antagonist mode. In kind it is cell-based. Conditions: antagonist mode; recombinant hC5a (EC90) as competing natural agonist; live CHO-K1 cells; read-out: [Antagonist] B-arrestin2 recruitment: Average IC50; call rule not given here. In short, it runs like this:
as §1

Each structure is given as a SMILES string. Read-outs that look alike come from different tables or passages of the source.

On to `Cc1cnc2cc([C@@H]3CC[C@H](c4c(C)cccc4F)C3)c(=O)n(Cc3ncccc3OC(F)F)c2n1` [175B, 5-((3-(Difluoromethoxy)pyridin-2-yl)methyl)-7-((1R,3S)-3-(2-fluoro-6-methylphenyl)cyclopentyl)-3-methylpyrido[2,3-b]pyrazin-6(5H)-one], for which, in assay [1] (at 10 μM), the “[Agonist] B-arrestin2 recruitment: Average EC50 (nM)” value (“[Agonist] B-arrestin2 recruitment” below) is reported as “Non-Active at 10 μM”. For the same compound, in assay [2], the IC50 was below 0.5 µM.
For `Cc1cnc2cc([C@H]3CC[C@H](c4c(F)cccc4F)CC3)c(=O)n(Cc3ncccc3C3CC3)c2n1` [compound 235, 5-((3-Cyclopropylpyridin-2-yl)methyl)-7-((1r,4r)-4-(2,6-difluorophenyl)cyclohexyl)-3-methylpyrido[2,3-b]pyrazin-6(5H)-one] the same measures were “Non-Active at 10 μM” and below 0.5 µM.
In the case of `Cc1cnc2cc([C@H]3CC[C@H](c4c(C)cccc4F)CC3)c(=O)n(Cc3ncccc3OCC(F)(F)F)c2n1` [compound 213, 7-((1r,4r)-4-(2-Fluoro-6-methylphenyl)cyclohexyl)-3-methyl-5-((3-(2,2,2-trifluoroethoxy)pyridin-2-yl)methyl)pyrido[2,3-b]pyrazin-6(5H)-one], in assay [1] (at 10 μM), the “[Agonist] B-arrestin2 recruitment” value is listed as “Non-Active at 10 μM”. Moreover, in assay [2], the IC50 was below 0.5 µM.
For `CCCc1cnc2cc([C@H]3CC[C@H](c4c(C)cccc4F)CC3)c(=O)n(Cc3ncccc3C(F)(F)F)c2n1` [compound 227, 7-((1r,4r)-4-(2-Fluoro-6-methylphenyl)cyclohexyl)-3-propyl-5-((3-(trifluoromethyl)pyridin-2-yl)methyl)pyrido[2,3-b]pyrazin-6(5H)-one] the same measures were “Non-Active at 10 μM” and below 0.5 µM.
The matching figures for `Cc1cnc2cc([C@H]3CC[C@H](c4scnc4C)CC3)c(=O)n(Cc3ncccc3C(F)(F)F)c2n1` [compound 164, 3-Methyl-7-((1r,4r)-4-(4-methylthiazol-5-yl)cyclohexyl)-5-((3-(trifluoromethyl)pyridin-2-yl)methyl)pyrido[2,3-b]pyrazin-6(5H)-one]: “Non-Active at 10 μM” and 0.5 to 5 µM.
On to `Cc1cnc2cc(C3CCN(c4c(C)ccnc4F)CC3)c(=O)n(Cc3nccnc3C(F)(F)F)c2n1` [compound 130, 7-(1-(2-Fluoro-4-methylpyridin-3-yl)piperidin-4-yl)-3-methyl-5-((3-(trifluoromethyl)pyrazin-2-yl)methyl)pyrido[2,3-b]pyrazin-6(5H)-one], for which the “[Agonist] B-arrestin2 recruitment” value in assay [1] is “Non-Active”. For the same compound, the IC50 in assay [2] is below 0.5 µM.
With `Cc1cnc2cc(N3CCN(c4c(C)cccc4F)CC3)c(=O)n(Cc3nccn(C(F)F)c3=O)c2n1` [161B, 5-((4-(Difluoromethyl)-3-oxo-3,4-dihydropyrazin-2-yl)methyl)-7-(4-(2-fluoro-6-methylphenyl)piperazin-1-yl)-3-methylpyrido[2,3-b]pyrazin-6(5H)-one], the “[Agonist] B-arrestin2 recruitment” value in assay [1] (at 10 μM) was “Non-Active at 10 μM”. Besides, in assay [2], the IC50 is 5 to 100 µM.
In the case of `CCOc1ncc2cc(C3CCN(c4c(C)cccc4F)CC3)c(=O)n(Cc3nccnc3C(F)(F)F)c2n1` [compound 51, 2-Ethoxy-6-(1-(2-fluoro-6-methylphenyl)piperidin-4-yl)-8-((3-(trifluoromethyl)pyrazin-2-yl)methyl)pyrido[2,3-d]pyrimidin-7(8H)-one], the “[Agonist] B-arrestin2 recruitment” value in assay [1] is recorded as “Non-Active”. Besides, the concentration for half-maximal inhibition (IC50) in assay [2] is 0.5 to 5 µM.
The matching figures for `Cc1cccc(F)c1N1CCC(c2cc3nccnc3n(Cc3ccc(C(F)(F)F)cn3)c2=O)CC1` [compound 15, 7-(1-(2-Fluoro-6-methylphenyl)piperidin-4-yl)-5-((5-(trifluoromethyl)pyridin-2-yl)methyl)pyrido[2,3-b]pyrazin-6(5H)-one]: “Non-Active” and above 100 µM.
In the case of `Cc1cnc2cc([C@H]3CC[C@@H](c4c(C)cccc4F)CC3)c(=O)n(Cc3nccnc3C)c2n1` [137A, (S)-7-((1s,4s)-4-(2-Fluoro-6-methylphenyl)cyclohexyl)-3-methyl-5-((3-methylpyrazin-2-yl)methyl)pyrido[2,3-b]pyrazin-6(5H)-one], the “[Agonist] B-arrestin2 recruitment” value in assay [1] is given as “Non-Active”. Further, in assay [2], the 50% inhibitory concentration (IC50) is 5 to 100 µM.
The matching figures for `Cc1cccc(F)c1N1CCC(c2cc3nccnc3n(Cc3cnccc3C(F)(F)F)c2=O)CC1` [compound 16, 7-(1-(2-Fluoro-6-methylphenyl)piperidin-4-yl)-5-((4-(trifluoromethyl)pyridin-3-yl)methyl) pyrido[2,3-b]pyrazin-6(5H)-one]: “Non-Active” and below 0.5 µM.
Regarding `Cc1cccc(F)c1N1CCC(c2cc3nccnc3n(Cc3nccnc3OC(F)F)c2=O)CC1` [compound 155, 5-((3-(Difluoromethoxy)pyrazin-2-yl)methyl)-7-(1-(2-fluoro-6-methylphenyl)piperidin-4-yl)pyrido[2,3-b]pyrazin-6(5H)-one], the “[Agonist] B-arrestin2 recruitment” value in assay [1] (at 10 μM) is “Non-Active at 10 μM”. Besides, the IC50 in assay [2] is below 0.5 µM.
On to `Cc1cccc(F)c1N1CCC(c2cc3nccnc3n(Cc3cccnc3C(F)(F)F)c2=O)CC1` [compound 13, 7-(1-(2-Fluoro-6-methylphenyl)piperidin-4-yl)-5-((2-(trifluoromethyl)pyridin-3-yl)methyl)pyrido[2,3-b]pyrazin-6(5H)-one], for which the “[Agonist] B-arrestin2 recruitment” value in assay [1] was “Non-Active”. Also, the IC50 in assay [2] is below 0.5 µM.
For `Cc1cccc(F)c1N1CCC(c2cc3nccnc3n([C@H]3CCCc4ncccc43)c2=O)CC1` [49b, (S)-7-(1-(2-Fluoro-6-methylphenyl)piperidin-4-yl)-5-(5,6,7,8-tetrahydroquinolin-5-yl)pyrido[2,3-b]pyrazin-6(5H)-one] the same measures were “Non-Active” and 0.5 to 5 µM.
`Cc1cnc2cc([C@H]3CC[C@H](c4c(C)cccc4F)CC3)c(=O)n(Cc3nccnc3C)c2n1` [137B, (R)-7-((1r,4r)-4-(2-Fluoro-6-methylphenyl)cyclohexyl)-3-methyl-5-((3-methylpyrazin-2-yl)methyl)pyrido[2,3-b]pyrazin-6(5H)-one]: in assay [1] (at 10 μM), the “[Agonist] B-arrestin2 recruitment” value was “Non-Active at 10 μM”. The IC50 in assay [2] was below 0.5 µM.
In the case of `Cc1ccc2cc([C@H]3CC[C@H](c4c(C)cccc4F)CC3)c(=O)n(Cc3ncccc3C3CC3)c2n1` [compound 241, 1-((3-Cyclopropylpyridin-2-yl)methyl)-3-((1r,4r)-4-(2-fluoro-6-methylphenyl)cyclohexyl)-7-methyl-1,8-naphthyridin-2(1H)-one], in assay [1], the “[Agonist] B-arrestin2 recruitment” value is given as “Non-Active”. In addition, the IC50 in assay [2] is below 0.5 µM.
The matching figures for `Cc1cnc2cc([C@H]3CC[C@H](c4c(F)cnc5c4cnn5C)CC3)c(=O)n(Cc3ncccc3C(F)(F)F)c2n1` [compound 266, 3-Methyl-7-[(1r,4r)-4-(5-fluoro-1-methyl-1H-1,2,7-triazainden-4-yl)cyclohexyl]-5-{[3-(trifluoromethyl)-2-pyridyl]methyl}-1,4,5-triaza-6(5H)-naphthalenone]: “Non-Active” and 5 to 100 µM.
With `Cc1cnc2cc([C@H]3CC[C@H](c4c(C)cccc4F)C3)c(=O)n(Cc3ncccc3C(F)(F)F)c2n1` [171C, 7-((1S,3S)-3-(2-Fluoro-6-methylphenyl)cyclopentyl)-3-methyl-5-((3-(trifluoromethyl)pyridin-2-yl)methyl)pyrido[2,3-b]pyrazin-6(5H)-one], the “[Agonist] B-arrestin2 recruitment” value in assay [1] was “Non-Active”. In assay [2], the half-maximal inhibitory concentration (IC50) was below 0.5 µM.
For `Cc1cnc2cc([C@@H]3CC[C@H](c4c(C)cccc4F)C3)c(=O)n(Cc3ncccc3C(F)(F)F)c2n1` [171B, 7-((1R,3S)-3-(2-Fluoro-6-methylphenyl)cyclopentyl)-3-methyl-5-((3-(trifluoromethyl)pyridin-2-yl)methyl)pyrido[2,3-b]pyrazin-6(5H)-one], the “[Agonist] B-arrestin2 recruitment” value in assay [1] (at 10 μM) was “Non-Active at 10 μM”. In addition, the concentration for half-maximal inhibition (IC50) in assay [2] was below 0.5 µM.
The matching figures for `Cc1cnc2cc(C3CCN(c4nnccc4C(F)(F)F)CC3)c(=O)n(Cc3ncccc3C(F)(F)F)c2n1` [compound 165, 3-Methyl-7-(1-(4-(trifluoromethyl)pyridazin-3-yl)piperidin-4-yl)-5-((3-(trifluoromethyl)pyridin-2-yl)methyl)pyrido[2,3-b]pyrazin-6(5H)-one]: “Non-Active at 10 μM” and below 0.5 µM.
For `Cc1cnc2cc(C3CCN(c4c(C)ccnc4F)CC3)c(=O)n(Cc3nccnc3C)c2n1` [compound 134, 7-(1-(2-Fluoro-4-methylpyridin-3-yl)piperidin-4-yl)-3-methyl-5-((3-methylpyrazin-2-yl)methyl)pyrido[2,3-b]pyrazin-6(5H)-one] the same measures were “Non-Active at 10 μM” and below 0.5 µM.
For `Cc1cccc(F)c1N1CCC(c2cc3nccnc3n([C@@H]3CCc4nccnc43)c2=O)CC1` [160B, (R)-5-(6,7-Dihydro-5H-cyclopenta[b]pyrazin-5-yl)-7-(1-(2-fluoro-6-methylphenyl)piperidin-4-yl)pyrido[2,3-b]pyrazin-6(5H)-one] the same measures were “Non-Active at 10 μM” and 5 to 100 µM.

The record behind these values is US20260317320A1, “C5AR1 ANTAGONISTS AND USES THEREOF” (Vanqua Bio, Inc., priority 2022, published 2026).
